From article PMC8286599 (Gut Pathogens, 2021)
Values after ≈ are worked out from the molar mass of the structure shown. Read-outs that look alike come from different tables or passages of the source.

Legend:
[1] = test system: Salmonella Enteritidis strains; type: cell-based; note: key: S- Sensitive; I- Intermediate; R- Resistant
[2] = test system: Salmonella Typhimurium strains; type: cell-based; note: key: S- Sensitive; I- Intermediate; R- Resistant
EAEC strains [3] = assay: Antibiotic susceptibility testing; type: cell-based, enteroaggregative Escherichia coli; note: key: S- Sensitive; I- Intermediate; R- Resistant
Excerpt: Supplement 13099_2021_443_MOESM1_ESM.docx, table 1: Supplementary Table 1. Antibiotic susceptibility pattern of EAEC and NTS strains under study | column: Antibiotic Susceptibility testing

EAEC strains [4] = assay: MIC values of antibiotics; type: cell-based, enteroaggregative Escherichia coli

Compound | Antibiotic Susceptibility testing ([1]; strain S1) | Antibiotic Susceptibility testing ([1]; strain S2) | Antibiotic Susceptibility testing ([1]; strain S3) | Antibiotic Susceptibility testing ([2]; strain ST1) | Antibiotic Susceptibility testing ([2]; strain ST2) | Antibiotic Susceptibility testing ([2]; strain ST3) | Antibiotic Susceptibility testing (EAEC strains [3]; strain E1) | Antibiotic Susceptibility testing (EAEC strains [3]; strain E2) | Antibiotic Susceptibility testing (EAEC strains [3]; strain E3) | further results
CO/N=C(\C(=O)N[C@@H]1C(=O)N2C(C(=O)[O-])=C(C[N+]3(C)CCCC3)CS[C@H]12)c1csc(N)n1 [CPM] | S | S | S | S | S | S | – | – | – | –
Cc1noc(NS(=O)(=O)c2ccc(N)cc2)c1C [SF, Sulphafurazole] | S | R | S | – | – | – | – | – | – | –
Cc1nnc(SCC2=C(C(=O)O)N3C(=O)[C@@H](NC(=O)Cn4cnnn4)[C@H]3SC2)s1 [CZ] | – | – | – | S | S | S | – | – | – | –
Nc1ccc(S(=O)(=O)Nc2ncccn2)cc1 [SD, Sulfadiazine] | – | – | – | – | – | – | – | – | – | Antibiotic Susceptibility testing [1]: R
C[C@@H](O)[C@H]1C(=O)N2C(C(=O)O)=C(SCCN=CN)C[C@H]12 [IMI, Imipenem] | – | – | – | – | – | – | S | S | S | MIC Values, class symbol printed instead of a number (EAEC strains [4]; strain E1): S; MIC Values, class symbol printed instead of a number (EAEC strains [4]; strain E2): S; MIC Values, class symbol printed instead of a number (EAEC strains [4]; strain E3): S
CC[C@H]1OC(=O)[C@H](C)[C@@H](O[C@H]2C[C@@](C)(OC)[C@@H](O)[C@H](C)O2)[C@H](C)[C@@H](O[C@@H]2O[C@H](C)C[C@H](N(C)C)[C@H]2O)[C@](C)(O)C[C@@H](C)CN(C)[C@H](C)[C@@H](O)[C@]1(C)O [AZM, Azithromycin] | – | – | – | – | – | – | – | – | – | Antibiotic Susceptibility testing [1]: S
O=C(O)c1cn(C2CC2)c2cc(N3CCNCC3)c(F)cc2c1=O [CIP] | – | – | – | R | R | R | S | R | R | MIC (EAEC strains [4]; strain E2): 120 µM (≈ 39.8 µg/mL); MIC (EAEC strains [4]; strain E3): 60 µM (≈ 19.9 µg/mL)
O=C(N[C@H](CO)[C@H](O)c1ccc([N+](=O)[O-])cc1)C(Cl)Cl [C, Chloramphenicol] | R | S | S | R | R | R | S | S | S | MIC Values, class symbol printed instead of a number (EAEC strains [4]; strain E1): S; MIC Values, class symbol printed instead of a number (EAEC strains [4]; strain E2): S; MIC Values, class symbol printed instead of a number (EAEC strains [4]; strain E3): S
Colistin sulphate | – | – | – | – | – | – | S | S | S | MIC Values, class symbol printed instead of a number (EAEC strains [4]; strain E1): S; MIC Values, class symbol printed instead of a number (EAEC strains [4]; strain E2): S; MIC Values, class symbol printed instead of a number (EAEC strains [4]; strain E3): S
Cc1cc(NS(=O)(=O)c2ccc(N)cc2)no1 [SXT, Sulfamethoxazole] | – | – | – | – | – | – | R | S | R | –
CC(C)(O/N=C(\C(=O)N[C@@H]1C(=O)N2C(C(=O)[O-])=C(C[n+]3ccccc3)CS[C@H]12)c1csc(N)n1)C(=O)O [CAZ] | – | – | – | S | R | I | – | – | – | –
C[C@H]1[C@H](NC(=O)/C(=N\OC(C)(C)C(=O)O)c2csc(N)n2)C(=O)N1S(=O)(=O)O [AT, Aztreonam] | S | S | S | – | – | – | – | – | – | –
CN(C)[C@@H]1C(O)=C(C(N)=O)C(=O)[C@@]2(O)C(O)=C3C(=O)c4c(O)cccc4[C@@](C)(O)[C@H]3C[C@@H]12 [TE] | R | S | S | R | R | R | R | R | R | MIC (EAEC strains [4]; strain E1): 60 µM (≈ 26.7 µg/mL); MIC (EAEC strains [4]; strain E2): 2 µM (≈ 0.889 µg/mL); MIC (EAEC strains [4]; strain E3): 30 µM (≈ 13.3 µg/mL)
C[C@H]1COc2c(N3CCN(C)CC3)c(F)cc3c(=O)c(C(=O)O)cn1c23 [LE, Levofloxacin] | – | – | – | R | R | I | – | – | – | –
C[C@@H](O)[C@H]1C(=O)N2C(C(=O)O)=C(S[C@@H]3CN[C@H](C(=O)N(C)C)C3)[C@H](C)[C@H]12 [MRP, Meropenem] | S | S | S | – | – | – | – | – | – | –
CCN1CCN(C(=O)N[C@@H](C(=O)N[C@@H]2C(=O)N3C(C(=O)O)=C(CSc4nnnn4C)CS[C@H]23)c2ccc(O)cc2)C(=O)C1=O [CPZ, Cefoperozone] | S | S | S | – | – | – | – | – | – | –
CO/N=C(\C(=O)N[C@@H]1C(=O)N2C(C(=O)O)=C(COC(C)=O)CS[C@H]12)c1csc(N)n1 [CTR, Cefotaxime] | – | – | – | S | R | S | S | R | R | MIC (EAEC strains [4]; Escherichia coli, strain E2): > 240 µM; MIC Values, class symbol printed instead of a number (EAEC strains [4]; strain E1): S; MIC (EAEC strains [4]; strain E3): >240 µM
C[C@@H](O)[C@H]1C(=O)N2C(C(=O)O)=C(SCCN=CN)C[C@H]12 [IPM] | – | – | – | S | S | S | – | – | – | –
NC[C@H]1O[C@H](O[C@H]2[C@H](O)[C@@H](O[C@H]3O[C@H](CO)[C@@H](O)[C@H](N)[C@H]3O)[C@H](N)C[C@@H]2N)[C@H](O)[C@@H](O)[C@@H]1O [K, Kanamycin] | R | S | S | – | – | – | – | – | – | –
CO[C@@]1(NC(=O)Cc2cccs2)C(=O)N2C(C(=O)O)=C(COC(N)=O)CS[C@@H]21 [CX] | – | – | – | – | – | – | – | – | – | Antibiotic Susceptibility testing [1]: S; Antibiotic Susceptibility testing [2]: S and R and I
CC1(C)S[C@@H]2[C@H](NC(=O)[C@H](N)c3ccccc3)C(=O)N2[C@H]1C(=O)O [AMP] | R | R | R | R | R | R | R | R | R | MIC (EAEC strains [4]; strain E1): >240 µM; MIC (EAEC strains [4]; strain E2): >240 µM; MIC (EAEC strains [4]; strain E3): >240 µM
CCn1cc(C(=O)O)c(=O)c2ccc(C)nc21 [NA, Nalidicic Acid] | R | R | R | R | R | I | – | – | – | –
COCC1=C(C(=O)O)N2C(=O)[C@@H](NC(=O)/C(=N\OC)c3csc(N)n3)[C@H]2SC1 [CPD, Cefpodoxime] | R | R | R | – | – | – | – | – | – | –
O=C1CN(/N=C/c2ccc([N+](=O)[O-])o2)C(=O)N1 [NIT, Nitrofurantoin] | – | – | – | – | – | – | – | – | – | Antibiotic Susceptibility testing [1]: S and R
CO/N=C(\C(=O)N[C@@H]1C(=O)N2C(C(=O)O)=C(COC(C)=O)CS[C@H]12)c1csc(N)n1 [CTX] | S | S | S | – | – | – | – | – | – | –
